Legend:
Format in all cases: in vivo, mouse
APP23 mice = test: Morris water maze (MWM) test; details: 8.5-month-old male APP23 mice; for acquisition of spatial learning (escape latency) in the MWM test: oral Am80 0.5 mg/kg and/or HX630 5 mg/kg for 17 days, vs vehicle-treated APP23 mice
Method: Hemizygous APP23 mice, which overexpress human-type AβPP carrying the double mutation K670N/M671L, were produced and bred as previously described. Only male mice were analyzed. Wistar rats were obtained from Kyudo Co., Ltd. (Kumamoto, Japan). Animals were housed in standard mouse cages under standard laboratory conditions: food and water available ad libitum, constant room temperature and humidity, and a 12 h light/12 h dark cycle (light on from 08:00 to 20:00). These animal experiments were conducted according to the guidelines of the Ministry of Education, Culture, Sports, Science, and Technology of Japan, and were approved by the Institutional Animal Care and Use Committee of Kumamoto University (#B25-133).
(§1) APP23 mice begin forming amyloid deposits when they are 6 months old, but memory deficits in the MWM test appear quite early (before 3 months of age). Here, we used 8.5-month-old male APP23 mice and their WT littermates (C57BL/6J). We used stratified random sampling to divide mice (four to six per cage) into four groups to equalize the mean body weight of the study groups: mice given 0.5 mg/kg/d Am80, those given 5 mg/kg/d HX630, those given the mixture of 0.5 mg/kg/d Am80 and 5 mg/kg/d HX630, and those given the vehicle. Am80 and HX630 were suspended in 0.5% (w/v) carboxymethylcellulose solution and were orally administered to mice at 0.5 mg/kg (Am80) or 5 mg/kg (HX630) for 17 consecutive days (once daily at 18:00). Control animals received the same volume of 0.5% (w/v) carboxymethylcellulose solution orally, without the other compounds. […]
The MWM test was performed as described previously. […] During both acquisition and probe trials, the routes of the mice were recorded by means of a computerized video tracking system (CompACT VAS; Muromachi Kikai Co. Ltd., Tokyo, Japan). Training trials measured the time it took for a mouse to find the escape platform. Probe trials determined the percent time spent in each quadrant of the maze. […]

NEP = test: Immunoblot of NEP in brains of APP23 mice; details: Am80 0.5 and/or HX630 5 mg/kg/d, day 18, vs vehicle-treated mice
Method: as §1, with “compounds. We set the 0.5 mg/kg/d dose for Am80 on the basis that this had been found effective in other in vivo studies, such as those by Kawahara et al. and Ishido and Shudo [37]. Higher doses of Am80 (3 mg/kg/d and 6 mg/kg/d) were also orally administered to mice for 17 consecutive days. Animals were weighed once a week. Mice were subjected to behavioral testing on days 15-18 of the first oral administration of the compounds (at 19:00-23:00). On days 15-17 (not day 18), animals received the compounds at 24:00, after behavioral testing.” for “compounds.”

full-length (fl)-APP = test: Immunoblot of full-length APP in brains of APP23 mice; details: 8.5-month-old male APP23 mice; Am80 0.5 and/or HX630 5 mg/kg/d; day 18
Method: as §1, with “compounds. We set the 0.5 mg/kg/d dose for Am80 on the basis that this had been found effective in other in vivo studies, such as those by Kawahara et al. and Ishido and Shudo [37]. Higher doses of Am80 (3 mg/kg/d and 6 mg/kg/d) were also orally administered to mice for 17 consecutive days. Animals were weighed once a week. Mice were subjected to behavioral testing on days 15-18 of the first oral administration of the compounds (at 19:00-23:00). On days 15-17 (not day 18), animals received the compounds at 24:00, after behavioral testing.” for “compounds.”

SMILES | acquisition of spatial learning (escape latency) in the MWM test (APP23 mice) | memory deficits in APP23 mice (MWM) (APP23 mice; oral Am80 0.5 mg/kg and/or HX630 5 mg/kg, 17 days) | NEP protein level in brain (immunoblot) (NEP) | total amount of full-length (fl)-APP in brain (full-length (fl)-APP)
CC1(C)CCC(C)(C)c2cc(NC(=O)c3ccc(C(=O)O)cc3)ccc21 [Am80, 4-{(5,6,7,8-tetrahydro-5,5,8,8-tetramethyl-2-naphthalenyl)carbamoyl}benzoic acid] | No significant difference | did not ameliorate memory deficits | Higher levels | had no effect
CN1c2ccccc2N=C(c2ccc(C(=O)O)cc2)c2cc3c(cc21)C(C)(C)CCC3(C)C [HX630, 4-[5H-2,3-(2,5dimethyl-2,5-hexano)-5-methyldibenzo[b,e]-diazepin-11-yl]benzoic acid] | No significant difference |  | Higher levels | had no effect

Source: US9861640B2, “Medicament for treatment of Alzheimer's disease” (KEMPHYS LTD., priority 2013, dated 2018)
